Consider one cell line from the supplement of paper PMC10307832.

Common to all, as to test: relative viability (nuclei count vs DMSO), 5 days (fraction); higher = more cells survive
Compound in assay [1]: CC(C)C[C@H](NC(=O)[C@H](CCc1ccccc1)NC(=O)CN1CCOCC1)C(=O)N[C@@H](Cc1ccccc1)C(=O)N[C@@H](CC(C)C)C(=O)[C@@]1(C)CO1 [Carfilzomib] + CS(=O)(=O)CCNCc1ccc(-c2ccc3ncnc(Nc4ccc(OCc5cccc(F)c5)c(Cl)c4)c3c2)o1 [Lapatinib] (partner 2 µM)
In short, it runs like this: (§1)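 Relative viability equals treated-well nuclei counts divided by vehicle-well nuclei counts. Counts came from 4× images of lung cancer cell lines grown in 1536-well plates for 5 days after pin-tool dosing on the day after seeding. Dosing used one drug alone or a fixed anchor-drug dose plus five library-drug doses (not always all listed) in √10 steps, and values are medians of duplicate plates.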

Compound in assay [2]: C[C@@H](Oc1cc(-c2cnn(C3CCNCC3)c2)cnc1N)c1c(Cl)ccc(F)c1Cl [Crizotinib] + CCNC(=O)c1noc(-c2cc(C(C)C)c(O)cc2O)c1-c1ccc(CN2CCOCC2)cc1 [Luminespib] (partner 0.01 µM)
An outline of the steps:
as §1

Compound in assay [3]: C[C@@H](Oc1cc(-c2cnn(C3CCNCC3)c2)cnc1N)c1c(Cl)ccc(F)c1Cl [Crizotinib] + CS(=O)(=O)N1CCN(Cc2cc3nc(-c4cccc5[nH]ncc45)nc(N4CCOCC4)c3s2)CC1 [Pictilisib] (partner 1 µM)
In short, it runs like this: as §1

Compound in assay [4]: O=C(c1cc(Cc2n[nH]c(=O)c3ccccc23)ccc1F)N1CCN(C(=O)C2CC2)CC1 [Olaparib] + C[C@]1(O)C[C@@H](c2nc(-c3ccc4ccc(-c5ccccc5)nc4c3)c3c(N)nccn32)C1 [Linsitinib] (partner 1 µM)
An outline of the steps: as §1

Compound in assay [5]: O=C(c1cc(Cc2n[nH]c(=O)c3ccccc23)ccc1F)N1CCN(C(=O)C2CC2)CC1 [Olaparib] + N=C(N)NC(=N)NCCc1ccccc1 [Phenformin] (partner 250 µM)
An outline of the steps: as §1

On to NCI-H1793, for which the relative viability was 0.772 in assay [1] (first compound 0.003162 µM); 0.476 in assay [1] (first compound 0.01 µM); 0.424 in assay [1] (first compound 0.03162 µM); 0.114 in assay [1] (first compound 0.1 µM); 0.209 in assay [2] (first compound 0.03162 µM); 0.178 in assay [2] (first compound 0.1 µM). The relative viability in assay [2] (first compound 1 µM) worked out at 0.161; in assay [3] (first compound 0.01 µM) it was 0.355; in assay [3] (first compound 0.03162 µM), 0.385; in assay [3] (first compound 0.1 µM) it was 0.339; in assay [3] (first compound 1 µM), 0.364; in assay [4] (first compound 0.08 µM) it was 0.862. The relative viability stood at 0.738 in assay [4] (first compound 0.253 µM); 0.942 in assay [4] (first compound 2.53 µM); 0.655 in assay [4] (first compound 8 µM); 0.341 in assay [5] (first compound 0.08 µM); 0.348 in assay [5] (first compound 0.253 µM); 0.305 in assay [5] (first compound 2.53 µM). Moreover, the relative viability in assay [5] (first compound 8 µM) was 0.287.
